Drawing on DBAASP, this text covers MIC for 4 compounds.

In brackets after ≈: the same amount, converted by molar mass. Several values for one entry are separate records, joined by “and”; a condition that tells them apart may be missing. Equal values may be shown once.

Some test systems named below: Streptococcus mutans; Enterococcus faecium; Klebsiella pneumoniae; Burkholderia cepacia; Candida albicans; Escherichia coli ESBL; Acinetobacter baumannii; Vibrio cholerae CUN 09; Moraxella catarrhalis; Escherichia coli INV-a; Corynebacterium xerosis; Escherichia coli KF130; Escherichia coli KF111; Candida albicans CAN105.
Common to all, as to assay: ≥ marks a high value that may be exact or a test limit, other limits are often not marked, values filed in µg/mL are converted to µM
The test system of test [1] is Staphylococcus aureus ATCC 25923.
The test system of test [2] is Pseudomonas aeruginosa ATCC 27853.
The test system of test [3] is Salmonella enterica serovar Minnesota R60.
In test [4] the test system is Staphylococcus aureus CUN 3792-99.
Test [5] concerns Bordetella bronchiseptica CUN 11844-99.
Test [6] relates to Pseudomonas aeruginosa CUN 4158-02.
The subject of test [7] is Escherichia coli ATCC 25922.
Test [8] concerns Acinetobacter baumannii ATCC 19506.
Test [9] concerns Staphylococcus aureus ATCC 43300.
Test [10] concerns Lactococcus lactis MG1363.
In test [11] the test system is Legionella pneumophila Lens.
In test [12] the test system is Pseudomonas aeruginosa H744.
In test [13] the test system is Staphylococcus haemolyticus.
The subject of test [14] is Staphylococcus aureus K147.
The test system of test [15] is Enterococcus faecalis C625.
Test [16] deals with Pseudomonas aeruginosa H547.
Test [17] has as its system Pseudomonas aeruginosa H374.
Test [18] has as its system Enterobacter cloacae C601.
The subject of test [19] is Mycobacterium tuberculosis H37Rv.
Test [20] relates to Enterobacter cloacae ATCC 13047.
The test system of test [21] is Salmonella enterica subsp. enterica serovar Typhimurium ATCC 14028s.
In test [22] the test system is Acinetobacter calcoaceticus C402.
Test [23] relates to Pseudomonas aeruginosa K799.
Test [24] has as its system Burkholderia cepacia ATCC 25416.
The test system of test [25] is Pseudomonas aeruginosa H187.
Test [26] relates to Streptococcus pyogenes ATCC 19615.
For test [27], the system named is Acinetobacter calcoaceticus ATCC 23055.
The subject of test [28] is Stenotrophomonas maltophilia ATCC 13637.
Test [29] concerns Listeria monocytogenes NCTC 7973.
Test [30] deals with Pseudomonas aeruginosa Z61.
For test [31], the system named is Staphylococcus aureus SAP 0017.
For test [32], the system named is Enterococcus faecalis ATCC 29212.
Test [33] deals with Staphylococcus epidermidis.

On to `NCCCC[C@H](NC(=O)CNC(=O)[C@H](CCCCN)NC(=O)[C@H](Cc1ccccc1)NC(=O)[C@H](CCCCN)NC(=O)[C@H](Cc1c[nH]c2ccccc12)NC(=O)[C@H](CCCN=C(N)N)NC(=O)[C@H](Cc1ccccc1)NC(=O)[C@H](CCCN=C(N)N)NC(=O)[C@H](CCCN=C(N)N)NC(=O)[C@H](Cc1ccc(O)cc1)NC(=O)[C@H](CCCCN)NC(=O)[C@H](CCCCN)NC(=O)[C@H](CS)NC(=O)CN)C(=O)N[C@@H](Cc1ccccc1)C(=O)N[C@@H](Cc1c[nH]c2ccccc12)C(=O)N[C@@H](Cc1ccccc1)C(=O)N[C@@H](Cc1c[nH]c2ccccc12)C(=O)NCC(N)=O` [GCKKYRRFRWKFKGKFWFWG], for which the minimal inhibitory concentration (MIC) (commonly the lowest concentration found to suppress growth) in the test on Streptococcus mutans was 11.8 µM (≈ 32 µg/mL); against Enterococcus faecium, 11.8 µM (≈ 32 µg/mL); in the test on Klebsiella pneumoniae, greater than 47.2 µM; in the test with Burkholderia cepacia it was 11.8 µM (≈ 32 µg/mL); against Candida albicans, 94.4 µM (≈ 256 µg/mL); in test [1], 11.8 µM (≈ 32 µg/mL). The minimal inhibitory concentration (MIC) in test [2] is 94.4 µM (≈ 256 µg/mL); in the test on Escherichia coli ESBL, ≥ 47.2 µM and 23.6 µM; with Acinetobacter baumannii it was no less than 47.2 µM; in test [3], 11.8 µM (≈ 32 µg/mL); in test [4] it was no less than 47.2 µM; in the test on Vibrio cholerae CUN 09, no less than 94.4 µM. The MIC in [5] was 11.8 µM (≈ 32 µg/mL); against Moraxella catarrhalis, 11.8 µM (≈ 32 µg/mL); in test [6], no less than 47.2 µM; in test [7], 47.2 µM (≈ 128 µg/mL); in test [8] it was no less than 47.2 µM; in [9], 11.8 µM (≈ 32 µg/mL).
For the compound `CC[C@H](C)[C@H](NC(=O)CNC(=O)[C@H](CCCCN)NC(=O)[C@H](Cc1c[nH]c2ccccc12)NC(=O)[C@H](CC(N)=O)NC(=O)[C@H](C)N)C(=O)N[C@@H](C)C(=O)N[C@@H](C)C(=O)N[C@@H](CCSC)C(=O)N[C@@H](C)C(=O)N[C@@H](CCCCN)C(=O)N[C@@H](CCCCN)C(=O)N[C@@H](CC(C)C)C(=O)N[C@@H](CC(C)C)C(N)=O` [ANWKGIAAMAKKLL], the minimum inhibitory concentration (MIC) in the test on Escherichia coli INV-a was no less than 33 µM; in [10], 18 µM (≈ 27.3 µg/mL).
In turn, `CC[C@H](C)[C@H](NC(=O)[C@H](CC(C)C)NC(=O)CNC(=O)[C@H](CCCCN)NC(=O)[C@@H](NC(=O)[C@@H](NC(=O)[C@H](CCC(=O)O)NC(=O)[C@@H](NC(=O)[C@@H](NC(=O)[C@H](CCCCN)NC(=O)[C@H](C)NC(=O)[C@@H](NC(=O)[C@@H](NC(=O)CNC(=O)[C@H](C)NC(=O)[C@@H](N)CCSC)C(C)C)[C@@H](C)CC)[C@@H](C)CC)C(C)C)[C@@H](C)CC)C(C)C)C(=O)N[C@@H](CC(=O)O)C(=O)N[C@@H](CCC(N)=O)C(=O)N[C@@H](Cc1ccccc1)C(=O)N[C@H](C(=O)N[C@@H](CCC(N)=O)C(=O)N[C@@H](CCCCN)C(=O)O)[C@@H](C)O` [MAGVIAKIVEIVKGLIDQFTQK] had a minimum inhibitory concentration (MIC) in test [11] of 1.3 µM (≈ 3.12 µg/mL).
Regarding `CC[C@H](C)[C@H](NC(=O)[C@H](CC(C)C)NC(=O)[C@@H]1CCCN1C(=O)[C@H](CCCCN)NC(=O)[C@H](C)NC(=O)[C@@H](NC(=O)[C@@H](NC(=O)[C@@H](NC(=O)[C@@H](NC(=O)[C@H](CCCCN)NC(=O)[C@H](CCCCN)NC(=O)[C@H](C)NC(=O)[C@H](C)NC(=O)[C@H](CO)NC(=O)[C@@H](NC(=O)[C@H](CC(C)C)NC(=O)[C@H](CCCCN)NC(=O)[C@H](CCCCN)NC(=O)[C@@H](NC(=O)[C@H](Cc1ccccc1)NC(=O)[C@H](CO)NC(=O)[C@H](CCCCN)NC(=O)[C@H](Cc1c[nH]c2ccccc12)NC(=O)[C@@H](N)CCCCN)[C@@H](C)CC)[C@@H](C)O)C(C)C)C(C)C)[C@@H](C)O)[C@@H](C)O)C(=O)N[C@@H](CO)C(=O)N[C@@H](CO)C(=O)O` [KWKSFIKKLTSAAKKVVTTAKPLISS], the MIC in test [12] was 0.699 µM (≈ 2 µg/mL); in test [13], 22.4 µM (≈ 64 µg/mL); in test [14], 22.4 µM (≈ 64 µg/mL); in test [15] it was 5.59 µM and 11.2 µM; in [16], 1.4 µM (≈ 4 µg/mL); in test [17], 0.699 µM (≈ 2 µg/mL). Moreover, the minimal inhibitory concentration (MIC) was 0.349 µM (≈ 1 µg/mL) in the test with Corynebacterium xerosis; 2.8 µM and 1.4 µM in [18]; 0.734 µM (≈ 2.1 µg/mL) in [19]; 0.699 µM (≈ 2 µg/mL) in [20]; 1.05 µM (≈ 3 µg/mL) in test [21]; 2.8 µM and 1.4 µM in [22]. Further, the MIC is 0.349 µM (≈ 1 µg/mL) against Escherichia coli KF130; 1.4 µM (≈ 4 µg/mL) in test [23]; 22.4 µM (≈ 64 µg/mL) in [24]; 11.2 µM (≈ 32 µg/mL) in test [25]; 5.59 µM (≈ 16 µg/mL) in [26]; 0.699 µM (≈ 2 µg/mL) in [27]. Also, the MIC in test [1] was 22.4 µM (≈ 64 µg/mL); in [2], 2.8 µM and 4 µM; in [28] it was 0.699 µM (≈ 2 µg/mL); in test [29], 5.59 µM (≈ 16 µg/mL); in test [30], 1.05 µM (≈ 3 µg/mL); against Escherichia coli KF111, 0.699 µM (≈ 2 µg/mL). For the same compound, the minimum inhibitory concentration (MIC) in test [31] is 22.4 µM (≈ 64 µg/mL); in [32], greater than 22.4 µM; in test [33], 11.2 µM (≈ 32 µg/mL); against Candida albicans CAN105, 22.4 µM (≈ 64 µg/mL).
